Source: patent publication US8367873B2, “Phenyl-substituted bicyclooctane-1,3-dione derivatives” (Bayer Cropscience AG, priority 2008, dated 2013)

Tests used:
Assay type in all cases: in vivo
[1] = test system: Alopecurus myosuroides; test: Herbicidal pre-emergence action; details: pre-emergence method, 80 g/ha, greenhouse, visual assessment vs untreated controls
In short: (§1)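 Visual percent effect relative to untreated controls (0% = like control, 100% = dead) assessed three weeks after treatment in the greenhouse. Compounds, as wettable powders in water (600 l/ha, 0.2% wetting agent), were sprayed at different amounts onto covering soil over seeds sown in sandy loam.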

[2] = test system: Echinocloa crus-galli; test: Herbicidal pre-emergence action; details: pre-emergence method, 80 g/ha, greenhouse, visual assessment vs untreated controls
In short: as §1

[3] = test system: Lolium multiflorum; test: Herbicidal pre-emergence action; details: pre-emergence method, 80 g/ha, greenhouse, visual assessment vs untreated controls
In short: as §1

[4] = test system: Setaria viridis; test: Herbicidal pre-emergence action; details: pre-emergence method, 80 g/ha, greenhouse, visual assessment vs untreated controls
In short: as §1

[5] = test system: Alopecurus myosuroides; test: Herbicidal post-emergence action; details: post-emergence method, 80 g/ha
In short: (§2)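 Post-emergence spray test: wettable-powder formulations are applied at different amounts to one-leaf-stage plants in 600 l/ha water containing 0.2% wetting agent. After roughly three weeks in the greenhouse, percent effect is rated visually relative to untreated controls.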

[6] = test system: Echinocloa crus-galli; test: Herbicidal post-emergence action; details: post-emergence method, 80 g/ha
In short: as §2

[7] = test system: Lolium multiflorum; test: Herbicidal post-emergence action; details: post-emergence method, 80 g/ha
In short: as §2

[8] = test system: Setaria viridis; test: Herbicidal post-emergence action; details: post-emergence method, 80 g/ha
In short: as §2

[9] = test system: monocotylidonous and dicotylidonous weed and crop plants; test: Herbicidal pre-emergence action (other test plants); details: pre-emergence method, 80 g/ha, greenhouse, visual assessment vs untreated controls
In short: as §1

[10] = test system: monocotylidonous and dicotylidonous weed and crop plants; test: Herbicidal post-emergence action (other test plants); details: post-emergence method, 80 g/ha
In short: as §2

Compound	herbicidal effect ALOMY [1]	herbicidal effect ECHCG [2]	herbicidal effect LOLMU [3]	herbicidal effect SETVI [4]	herbicidal effect against ALOMY (Alopecurus myosuroides) [5]	herbicidal effect against ECHCG (Echinochloa crus-galli) [6]	herbicidal effect against LOLMU (Lolium multiflorum) [7]	herbicidal effect against SETVI (Setaria viridis) [8]	herbicidal effect AVEFA [9]	herbicidal effect against AVEFA (Avena fatua) [10]
CCc1cc(C)cc(CC)c1C1=C(OC(=O)COC)C2CC3(COC(C)(C)O3)CC2C1=O (centres unmarked) [I-b-4]	90%	70%	100%	60%	100%	100%	100%	60%	50%	90%
CCc1cc(C)cc(CC)c1C1=C(O)C2CC(=NOCC(F)(F)F)CC2C1=O (centres unmarked) [I-a-70]	80%	80%	80%	60%	90%	100%	100%	60%	60%	0%
C=C1CC2C(=O)C(c3c(C)cc(C)cc3C)=C(OC(=O)C(C)C)C2C1 (centres unmarked) [I-b-38]	80%	80%	60%	80%	40%	90%	70%	90%	70%	0%
CCc1cc(C)cc(C)c1C1=C(OC(=O)OC)C2CC3(CC2C1=O)OCC=CCO3 (racemic) [I-c-73]	70%	50%	100%	60%	100%	100%	100%	100%	40%	0%
CCc1cc(C)cc(C)c1C1=C(OC(=O)C(C)(C)C)C2CC3(COC(C)(C)O3)CC2C1=O (centres unmarked) [I-b-70]	100%	100%	100%	90%	70%	100%	100%	40%	80%	0%
CCc1cc(C)cc(CC)c1C1=C(OC(=O)C(C)C)C2CC3(CC2C1=O)OCCS3 (mixture of isomers) [I-b-21]	80%	80%	100%	20%	90%	100%	100%	90%	80%	90%
C=C1C[C@@H]2C(O)=C(c3c(C)cc(C)cc3C)C(=O)[C@@H]2C1 (relative stereo) [I-a-36]	60%	80%	90%	80%	50%	90%	90%	90%	70%	0%
CCC(=O)OC1=C(c2c(CC)cc(C)cc2CC)C(=O)C2CC3(COC(C)(C)O3)CC12 (centres unmarked) [I-b-6]	100%	30%	100%	60%	90%	100%	100%	90%	80%	100%
CCc1cc(C)cc(CC)c1C1=C(O)[C@H]2CC3(C[C@H]2C1=O)OCC(OCc1ccccc1)CO3 (relative stereo) [I-a-27]	90%	100%	100%	90%	100%	100%	100%	90%	80%	100%
COc1cc(C)cc(C)c1C1=C(O)C2CC3(CC2C1=O)OCCCCO3 (centres unmarked) [I-a-50]	100%	80%	100%	70%	100%	100%	100%	100%	60%	100%
Cc1cc(C)c(C2=C(OC(=O)C(C)C)C3CC4(CC3C2=O)OCC(C)CO4)c(C)c1 (centres unmarked) [I-b-43]	90%	20%	90%	60%	100%	90%	100%	100%	40%	80%
CCOC(=O)OC1=C(c2c(C)cc(C)cc2C)C(=O)C2CC3(CC12)OCCO3 (centres unmarked) [I-c-44]	50%	0%	100%	0%	40%	100%	100%	90%	50%	80%
COC(=O)OC1=C(c2c(C)cc(C)cc2C)C(=O)C2CC3(COC(C)(C)O3)CC12 (mixture of isomers) [I-c-56]	90%	20%	90%	0%	90%	80%	80%	40%	20%	20%
CCc1cc(C)cc(CC)c1C1=C(OC(=O)OC)C2CC3(CC2C1=O)OCC(C)(C)CO3 (centres unmarked) [I-c-23]	100%	100%	100%	100%	100%	100%	100%	100%	70%	100%
